Test results taken from ChEMBL document CHEMBL1697781, “Assessment of the health effects of chemicals in humans: II. Construction of an adverse effects database for QSAR modeling” (Curr Drug Discov Technol, 2004).

Legend:
Details in all cases: human; call rule not given here
Hepatotoxicity [1] = experiment: FDA HLAED, liver enzyme composite activity
Hepatotoxicity [2] = experiment: FDA HLAED, serum glutamic oxaloacetic transaminase (SGOT) increase
Hepatotoxicity [3] = experiment: FDA HLAED, serum glutamic pyruvic transaminase (SGPT) increase
Hepatotoxicity [4] = experiment: FDA HLAED, alkaline phosphatase increase
Hepatotoxicity [5] = experiment: FDA HLAED, lactate dehydrogenase (LDH) increase
Hepatotoxicity [6] = experiment: FDA HLAED, gamma-glutamyl transferase (GGT) increase
Wherever GGT Increase - Index Value is given: reference of the scale not given here.
Wherever LDH Increase - Index Value is given: reference of the scale not given here.

Row | SMILES | SGOT Increase - Activity Score (Hepatotoxicity [2]) | SGOT Increase - Index Value (Hepatotoxicity [2]) | SGOT Increase - Number of Reports (Hepatotoxicity [2]) | SGPT Increase - Activity Score (Hepatotoxicity [3]) | SGPT Increase - Index Value (Hepatotoxicity [3]) | SGPT Increase - Number of Reports (Hepatotoxicity [3]) | Alkaline Phosphatase Increase - Activity Score (Hepatotoxicity [4]) | Alkaline Phosphatase Increase - Index Value (Hepatotoxicity [4]) | Alkaline Phosphatase Increase - Number of Reports (Hepatotoxicity [4]) | LDH Increase - Activity Score (Hepatotoxicity [5]) | LDH Increase - Index Value (Hepatotoxicity [5]) | LDH Increase - Number of Reports (Hepatotoxicity [5]) | GGT Increase - Activity Score (Hepatotoxicity [6]) | GGT Increase - Index Value (Hepatotoxicity [6]) | GGT Increase - Number of Reports (Hepatotoxicity [6]) | Composite Activity - Active (Hepatotoxicity [1]) | Composite Activity - Marginal (Hepatotoxicity [1]) | Composite Activity - Score (Hepatotoxicity [1]) | also measured
1 | O=C(O)c1cc(-c2ccc(F)cc2F)ccc1O [DIFLUNISAL] | Inactive | 0.3 | < 4 | Inactive | 0.5 | < 4 | Inactive | 0 | < 4 | Inactive | 0 | < 4 | Inactive | 0 | < 4 | – | – | – | Composite Activity - Active (Hepatotoxicity [1]; Liver): 0; Composite Activity - Marginal (Hepatotoxicity [1]; Liver): 0; Composite Activity - Score (Hepatotoxicity [1]; Liver): Inactive
2 | COc1ccc([C@@H]2Sc3ccccc3N(CCN(C)C)C(=O)[C@@H]2OC(C)=O)cc1 [DILTIAZEM] | Inactive | 0.3 | >= 4 | Inactive | 0.1 | < 4 | Inactive | 0.1 | < 4 | Inactive | 0.1 | < 4 | Inactive | 0 | < 4 | 0 | 0 | Inactive | –
3 | CNCC(O)c1ccc(OC(=O)C(C)(C)C)c(OC(=O)C(C)(C)C)c1 (stereo unspecified) [DIPIVEFRIN] | Inactive | 0 | < 4 | Inactive | 0 | < 4 | Inactive | 0 | < 4 | Inactive | 0 | < 4 | Inactive | 0 | < 4 | 0 | 0 | Inactive | –
4 | CC[C@H]1OC(=O)[C@H](C)[C@@H](O[C@H]2C[C@@](C)(OC)[C@@H](O)[C@H](C)O2)[C@H](C)[C@@H](O[C@@H]2O[C@H](C)C[C@H](N(C)C)[C@H]2O)[C@](C)(O)C[C@@H](C)[C@@H]2N[C@@H](COCCOC)O[C@H]([C@H]2C)[C@]1(C)O [DIRITHROMYCIN] | Inactive | 5.4 | < 4 | Inactive | 5.4 | < 4 | Inactive | 0 | < 4 | Inactive | 0 | < 4 | Inactive | 2.7 | < 4 | 0 | 0 | Inactive | –
5 | CC(CCc1ccc(O)cc1)NCCc1ccc(O)c(O)c1 (stereo unspecified) [DOBUTAMINE] | Inactive | 0 | < 4 | Inactive | 0 | < 4 | Inactive | 0 | < 4 | Inactive | 0 | < 4 | Inactive | 0 | < 4 | 0 | 0 | Inactive | –
6 | CC(=O)O[C@@]12CO[C@@H]1C[C@H](O)[C@@]1(C)C(=O)[C@H](O)C3=C(C)[C@@H](OC(=O)[C@H](O)[C@@H](NC(=O)OC(C)(C)C)c4ccccc4)C[C@@](O)([C@@H](OC(=O)c4ccccc4)[C@H]21)C3(C)C.O.O.O [DOCETAXEL] | Inactive | – | < 4 | Inactive | – | < 4 | Inactive | – | < 4 | Inactive | – | < 4 | Inactive | – | < 4 | 0 | 0 | Inactive | –
7 | CCN[C@H]1C[C@H](C)S(=O)(=O)c2sc(S(N)(=O)=O)cc21 [DORZOLAMIDE] | Inactive | 0.2 | < 4 | Inactive | 0.1 | < 4 | Inactive | 0 | < 4 | Inactive | 0.1 | < 4 | Inactive | 0 | < 4 | 0 | 0 | Inactive | –
8 | COc1cc(CC2c3c(cc(OC)c(OC)c3OC)CC[N+]2(C)CCCOC(=O)CCC(=O)OCCC[N+]2(C)CCc3cc(OC)c(OC)c(OC)c3C2Cc2cc(OC)c(OC)c(OC)c2)cc(OC)c1OC.[Cl-].[Cl-] (stereo unspecified) [DOXACURIUM CHLORIDE] | Inactive | 0 | < 4 | Inactive | 0 | < 4 | Inactive | 0 | < 4 | Inactive | 0 | < 4 | Inactive | 0 | < 4 | 0 | 0 | Inactive | –
9 | COc1cc2nc(N3CCN(C(=O)C4COc5ccccc5O4)CC3)nc(N)c2cc1OC (stereo unspecified) [DOXAZOSIN] | Inactive | 0.3 | < 4 | Inactive | 0.5 | >= 4 | Inactive | 0.2 | < 4 | Inactive | 0.2 | < 4 | Inactive | 0.2 | < 4 | 0 | 0 | Inactive | –
10 | CCCCCc1cc(O)c2c(c1)OC(C)(C)[C@@H]1CCC(C)=C[C@@H]21 [DRONABINOL] | Inactive | 0 | < 4 | Inactive | 0 | < 4 | Inactive | 0 | < 4 | Inactive | 0 | < 4 | Inactive | 0 | < 4 | 0 | 0 | Inactive | –
11 | Clc1ccc(COC(Cn2ccnc2)c2ccc(Cl)cc2Cl)cc1 (stereo unspecified) [ECONAZOLE] | Inactive | 0 | < 4 | Inactive | 0 | < 4 | Inactive | 0 | < 4 | Inactive | 0 | < 4 | Inactive | 0 | < 4 | 0 | 0 | Inactive | –
12 | COc1ccc(C(=O)Nc2ccccc2CCC2CCCCN2C)cc1 (stereo unspecified) [ENCAINIDE] | Active | 12.4 | >= 4 | Active | 7.7 | >= 4 | Marginally Active | 3.6 | >= 4 | Active | 4.1 | >= 4 | Inactive | 0 | < 4 | 3 | 1 | Active | –
